Each compound was assayed on pdr5 ypt1^ts cells (assay: microbe, parasite or virus in culture). Conditions: Saccharomyces cerevisiae; Table 2; lowest concentration tested giving growth above the 0 μM background; 37° C.; read-out: ypt1-ts MRC (minimal rescue concentration).
Type: cell-based, yeast
From the text: The activity of the compounds as modulators of protein trafficking may be measured in the assays described herein that evaluate the ability of a compound to rescue an impairment in protein trafficking. For example, the yeast mutant cell line ypt1^ts can be used to identify compounds that rescue cells from the lethal phenotype of a mutant YPT1 allele (see, e.g., Examples and Schmitt et al. (1988) Cell 53:635-47). The activity may be measured, for example, in a whole yeast cell assay using 384-well screening protocol and an optical density measurement.
The yeast mutant cell line ypt1^ts suppresses, in a temperature dependent fashion, the dominant-lethal phenotype of a mutant YPT1 allele (Schmitt et al. (1988) Cell 53:635-47). ypt1^ts cells grow normally at temperatures up to 30° C., but are growth arrested at 37° C. (Id.).
A library of compounds (“The Spectrum Collection”) obtained from Microsource Discovery Systems, Inc. (Gaylordsville, Conn.) was screened to assess the ability of individual compounds to restore growth of ypt1^ts cells. Screening was carried out using ypt1^ts cells containing a mutation in the pdr5 gene (resulting in inactivation of a membrane efflux pump). The effect of the compounds was measured in pdr5 ypt1^ts cells cultured at 37° C.

| SMILES | minimal effective concentration |
| --- | --- |
| CCOC(=O)C1=C(C)NC(C)=C(C(=O)OC)C1c1cccc([N+](=O)[O-])c1 (centres unmarked) [NITRENDIPINE, reference compound] | 3.13 µM |
| CC(C)c1c(O)ccc2c1CCC1[C@@](C)(CO)CCC[C@]21C (some centres unmarked) [HYDROXY (19)TOTAROL] | 12.5 µM |
| COc1ccc2c(c1)O[C@H]1c3ccc(OC)cc3OC[C@@H]21 [HOMOPTEROCARPIN] | 25 µM |
| O=C([O-])Cc1ccccc1Nc1c(Cl)cccc1Cl.[Na+] [DICLOFENAC SODIUM, reference compound] | 12.5 µM |
| C=CCCCCCCCCCCCC(O)CC(O)CO (centres unmarked) [AVOCADENE] | 6.25 µM |

Same assay, conditions: Table 2; 0.39 μM compound; 37° C.; background (0 μM) 0.058

| SMILES | optical density, ypt1-ts, 0.39 |
| --- | --- |
| COc1ccc2oc3ccccc3c(=O)c2c1 [2-METHOXYXANTHONE] | 0.093 |
| CCOC(=O)C1=C(C)NC(C)=C(C(=O)OC)C1c1cccc([N+](=O)[O-])c1 (centres unmarked) [NITRENDIPINE, reference compound] | 0.11 |
| CC(C)c1c(O)ccc2c1CCC1[C@@](C)(CO)CCC[C@]21C (some centres unmarked) [HYDROXY (19)TOTAROL] | 0.098 |
| COc1ccc2c(c1)O[C@H]1c3ccc(OC)cc3OC[C@@H]21 [HOMOPTEROCARPIN] | 0.083 |
| O=C([O-])Cc1ccccc1Nc1c(Cl)cccc1Cl.[Na+] [DICLOFENAC SODIUM, reference compound] | 0.085 |
| C=CCCCCCCCCCCCC(O)CC(O)CO (centres unmarked) [AVOCADENE] | 0.097 |

Same assay, conditions: Table 2; 0.78 μM compound; 37° C.; background (0 μM) 0.058

| SMILES | optical density, ypt1-ts, 0.78 |
| --- | --- |
| COc1ccc2oc3ccccc3c(=O)c2c1 [2-METHOXYXANTHONE] | 0.069 |
| CCOC(=O)C1=C(C)NC(C)=C(C(=O)OC)C1c1cccc([N+](=O)[O-])c1 (centres unmarked) [NITRENDIPINE, reference compound] | 0.089 |
| CC(C)c1c(O)ccc2c1CCC1[C@@](C)(CO)CCC[C@]21C (some centres unmarked) [HYDROXY (19)TOTAROL] | 0.076 |
| COc1ccc2c(c1)O[C@H]1c3ccc(OC)cc3OC[C@@H]21 [HOMOPTEROCARPIN] | 0.064 |
| O=C([O-])Cc1ccccc1Nc1c(Cl)cccc1Cl.[Na+] [DICLOFENAC SODIUM, reference compound] | 0.072 |
| C=CCCCCCCCCCCCC(O)CC(O)CO (centres unmarked) [AVOCADENE] | 0.074 |

Same assay, conditions: Table 2; 1.56 μM compound; 37° C.; background (0 μM) 0.058

| SMILES | optical density, ypt1-ts, 1.56 |
| --- | --- |
| COc1ccc2oc3ccccc3c(=O)c2c1 [2-METHOXYXANTHONE] | 0.083 |
| CCOC(=O)C1=C(C)NC(C)=C(C(=O)OC)C1c1cccc([N+](=O)[O-])c1 (centres unmarked) [NITRENDIPINE, reference compound] | 0.103 |
| CC(C)c1c(O)ccc2c1CCC1[C@@](C)(CO)CCC[C@]21C (some centres unmarked) [HYDROXY (19)TOTAROL] | 0.085 |
| COc1ccc2c(c1)O[C@H]1c3ccc(OC)cc3OC[C@@H]21 [HOMOPTEROCARPIN] | 0.065 |
| O=C([O-])Cc1ccccc1Nc1c(Cl)cccc1Cl.[Na+] [DICLOFENAC SODIUM, reference compound] | 0.077 |
| C=CCCCCCCCCCCCC(O)CC(O)CO (centres unmarked) [AVOCADENE] | 0.09 |

Same assay, conditions: Table 2; 3.13 μM compound; 37° C.; background (0 μM) 0.058

| SMILES | optical density, ypt1-ts, 3.13 |
| --- | --- |
| COc1ccc2oc3ccccc3c(=O)c2c1 [2-METHOXYXANTHONE] | 0.094 |
| CCOC(=O)C1=C(C)NC(C)=C(C(=O)OC)C1c1cccc([N+](=O)[O-])c1 (centres unmarked) [NITRENDIPINE, reference compound] | 0.143 |
| CC(C)c1c(O)ccc2c1CCC1[C@@](C)(CO)CCC[C@]21C (some centres unmarked) [HYDROXY (19)TOTAROL] | 0.106 |
| COc1ccc2c(c1)O[C@H]1c3ccc(OC)cc3OC[C@@H]21 [HOMOPTEROCARPIN] | 0.071 |
| O=C([O-])Cc1ccccc1Nc1c(Cl)cccc1Cl.[Na+] [DICLOFENAC SODIUM, reference compound] | 0.089 |
| C=CCCCCCCCCCCCC(O)CC(O)CO (centres unmarked) [AVOCADENE] | 0.108 |

Same assay, conditions: Table 2; 6.25 μM compound; 37° C.; background (0 μM) 0.058

| SMILES | optical density, ypt1-ts, 6.25 |
| --- | --- |
| COc1ccc2oc3ccccc3c(=O)c2c1 [2-METHOXYXANTHONE] | 0.108 |
| CCOC(=O)C1=C(C)NC(C)=C(C(=O)OC)C1c1cccc([N+](=O)[O-])c1 (centres unmarked) [NITRENDIPINE, reference compound] | 0.309 |
| CC(C)c1c(O)ccc2c1CCC1[C@@](C)(CO)CCC[C@]21C (some centres unmarked) [HYDROXY (19)TOTAROL] | 0.125 |
| COc1ccc2c(c1)O[C@H]1c3ccc(OC)cc3OC[C@@H]21 [HOMOPTEROCARPIN] | 0.09 |
| O=C([O-])Cc1ccccc1Nc1c(Cl)cccc1Cl.[Na+] [DICLOFENAC SODIUM, reference compound] | 0.092 |
| C=CCCCCCCCCCCCC(O)CC(O)CO (centres unmarked) [AVOCADENE] | 0.134 |

Same assay, conditions: Table 2; 12.5 μM compound; 37° C.; background (0 μM) 0.058

| SMILES | optical density, ypt1-ts, 12.5 |
| --- | --- |
| COc1ccc2oc3ccccc3c(=O)c2c1 [2-METHOXYXANTHONE] | 0.128 |
| CCOC(=O)C1=C(C)NC(C)=C(C(=O)OC)C1c1cccc([N+](=O)[O-])c1 (centres unmarked) [NITRENDIPINE, reference compound] | 0.403 |
| CC(C)c1c(O)ccc2c1CCC1[C@@](C)(CO)CCC[C@]21C (some centres unmarked) [HYDROXY (19)TOTAROL] | 0.407 |
| COc1ccc2c(c1)O[C@H]1c3ccc(OC)cc3OC[C@@H]21 [HOMOPTEROCARPIN] | 0.117 |
| O=C([O-])Cc1ccccc1Nc1c(Cl)cccc1Cl.[Na+] [DICLOFENAC SODIUM, reference compound] | 0.126 |
| C=CCCCCCCCCCCCC(O)CC(O)CO (centres unmarked) [AVOCADENE] | 0.209 |

Same assay, conditions: Table 2; 25 μM compound; 37° C.; background (0 μM) 0.058

| SMILES | optical density, ypt1-ts, 25 |
| --- | --- |
| COc1ccc2oc3ccccc3c(=O)c2c1 [2-METHOXYXANTHONE] | 0.221 |
| CCOC(=O)C1=C(C)NC(C)=C(C(=O)OC)C1c1cccc([N+](=O)[O-])c1 (centres unmarked) [NITRENDIPINE, reference compound] | 0.481 |
| CC(C)c1c(O)ccc2c1CCC1[C@@](C)(CO)CCC[C@]21C (some centres unmarked) [HYDROXY (19)TOTAROL] | 0.515 |
| COc1ccc2c(c1)O[C@H]1c3ccc(OC)cc3OC[C@@H]21 [HOMOPTEROCARPIN] | 0.44 |
| O=C([O-])Cc1ccccc1Nc1c(Cl)cccc1Cl.[Na+] [DICLOFENAC SODIUM, reference compound] | 0.242 |
| C=CCCCCCCCCCCCC(O)CC(O)CO (centres unmarked) [AVOCADENE] | 0.408 |

Same assay, conditions: Table 3; 3.13 uM compound; 37° C.; background (0 uM) 0.077

| SMILES | optical density, 3.13 uM |
| --- | --- |
| COC(=O)C[C@H]1C(C)(C)[C@@H](OC(C)=O)[C@@H]2CC3C(CC[C@]4(C)C3CC(=O)O[C@H]4c3ccoc3)[C@]1(C)C2=O (some centres unmarked) [DIHYDRO- FISSINOLIDE] | 0.079 |

Same assay, conditions: Table 3; 12.5 uM compound; 37° C.; background (0 uM) 0.077

| SMILES | optical density, 12.5 uM |
| --- | --- |
| COC(=O)C[C@H]1C(C)(C)[C@@H](OC(C)=O)[C@@H]2CC3C(CC[C@]4(C)C3CC(=O)O[C@H]4c3ccoc3)[C@]1(C)C2=O (some centres unmarked) [DIHYDRO- FISSINOLIDE] | 0.085 |

Same assay, conditions: Table 3; 50 uM compound; 37° C.; background (0 uM) 0.077

| SMILES | optical density, 50 uM |
| --- | --- |
| COC(=O)C[C@H]1C(C)(C)[C@@H](OC(C)=O)[C@@H]2CC3C(CC[C@]4(C)C3CC(=O)O[C@H]4c3ccoc3)[C@]1(C)C2=O (some centres unmarked) [DIHYDRO- FISSINOLIDE] | 0.308 |
